Data as given in PubChem BioAssay (NCI).
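Results reflect a 48-hour exposure of cells in 96-well plates to compound at five concentrations. TGI marks complete inhibition of growth.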

Experiments:
Assay in all cases: NCI anticancer screen, dose series, 48 h
NCI-H23 lung = system: NCI-H23 lung
SF-268 CNS = system: SF-268 CNS
U251 CNS = system: U251 CNS
SK-OV-3 ovarian = system: SK-OV-3 ovarian
SK-MEL-5 melanoma = system: SK-MEL-5 melanoma
SR leukemia = system: SR leukemia
KM12 colon = system: KM12 colon
ACHN renal = system: ACHN renal
NCI/ADR-RES ovarian = system: NCI/ADR-RES ovarian
NCI-H522 lung = system: NCI-H522 lung
SNB-75 CNS = system: SNB-75 CNS
UACC-257 melanoma = system: UACC-257 melanoma

CCCC(=O)N/S(=N/S(=O)(=O)c1ccc(Cl)cc1)C(Cl)(Cl)Cl (stereo unspecified)
TGI (NCI-H23 lung): > 100 µM
TGI (SF-268 CNS): > 100 µM
TGI (U251 CNS): > 100 µM
TGI (SK-OV-3 ovarian): > 100 µM
TGI (SK-MEL-5 melanoma): > 100 µM
TGI (SR leukemia): > 100 µM
TGI (KM12 colon): > 100 µM
TGI (ACHN renal): > 100 µM
TGI (NCI/ADR-RES ovarian): > 100 µM

CCOC(OCC)c1ccc(/C=C/c2cc(OC)c(OC)c(OC)c2)cc1
TGI (NCI-H522 lung): > 100 µM
TGI (SNB-75 CNS): 57.5 µM
TGI (SF-268 CNS): 71.8 µM
TGI (U251 CNS): 32.2 µM
TGI (UACC-257 melanoma): 51.2 µM
TGI (SK-MEL-5 melanoma): 28.5 µM
TGI (ACHN renal): > 100 µM

COc1ccc(C2SC(N)=Nc3c2c(C)nn3C(=O)c2ccc(Cl)cc2)cc1 (stereo unspecified)
TGI (NCI-H522 lung): > 10 µM
TGI (SNB-75 CNS): > 10 µM
TGI (NCI-H23 lung): > 10 µM
TGI (SF-268 CNS): > 10 µM
TGI (U251 CNS): > 10 µM
TGI (SK-OV-3 ovarian): > 10 µM
TGI (UACC-257 melanoma): > 10 µM
TGI (SK-MEL-5 melanoma): > 10 µM
TGI (KM12 colon): > 10 µM
TGI (ACHN renal): > 10 µM
TGI (NCI/ADR-RES ovarian): > 10 µM

COc1cc2c(cc1OC)C1C(O)C(OC)C=C3CC[N+](C)(C2)C31 (stereo unspecified)
TGI (NCI-H522 lung): > 100 µM
TGI (SNB-75 CNS): > 100 µM
TGI (NCI-H23 lung): > 100 µM
TGI (SF-268 CNS): > 100 µM
TGI (U251 CNS): > 100 µM
TGI (SK-OV-3 ovarian): > 100 µM
TGI (UACC-257 melanoma): > 100 µM
TGI (SK-MEL-5 melanoma): > 100 µM
TGI (KM12 colon): > 100 µM
TGI (ACHN renal): > 100 µM
TGI (NCI/ADR-RES ovarian): > 100 µM

COc1cc(C)cc2c1C(=O)C(Br)=CC2=O
TGI (NCI-H522 lung): 3.19 µM
TGI (SNB-75 CNS): 31.7 µM
TGI (NCI-H23 lung): 39.4 µM
TGI (SF-268 CNS): 35.8 µM
TGI (U251 CNS): 37.4 µM
TGI (SK-OV-3 ovarian): 33.8 µM
TGI (UACC-257 melanoma): 26.7 µM
TGI (SK-MEL-5 melanoma): 25.1 µM
TGI (KM12 colon): 28.8 µM
TGI (ACHN renal): 6.96 µM
TGI (NCI/ADR-RES ovarian): 74.9 µM

COc1ccc(Nc2nc(N)c(C(=O)c3ccc(OC)cc3)s2)cc1
TGI (NCI-H522 lung): 0.455 µM
TGI (SNB-75 CNS): 6.26 µM
TGI (NCI-H23 lung): > 93.4 µM
TGI (SF-268 CNS): > 100 µM
TGI (U251 CNS): 17.2 µM
TGI (SK-OV-3 ovarian): 28.7 µM
TGI (UACC-257 melanoma): > 100 µM
TGI (SK-MEL-5 melanoma): > 100 µM
TGI (NCI/ADR-RES ovarian): > 100 µM

COC1=CC(C2c3cc4c(cc3[C@@H](Nc3ccc([N+](=O)[O-])cc3)C3COC(=O)[C@H]23)OCO4)=CC(=O)C1=O (stereo partly specified)
TGI (NCI-H522 lung): 13.4 µM
TGI (SNB-75 CNS): 16 µM
TGI (NCI-H23 lung): 4.68 µM
TGI (SF-268 CNS): 12.6 µM
TGI (U251 CNS): 4.75 µM
TGI (SK-OV-3 ovarian): 6.98 µM
TGI (UACC-257 melanoma): > 100 µM
TGI (SK-MEL-5 melanoma): 19.9 µM
TGI (KM12 colon): 26.4 µM
TGI (ACHN renal): 4.43 µM

O=c1cc(NCC2CCCCC2)[nH]c(=O)[nH]1
TGI (SNB-75 CNS): > 100 µM
TGI (NCI-H23 lung): > 100 µM
TGI (SF-268 CNS): > 100 µM
TGI (U251 CNS): > 100 µM
TGI (UACC-257 melanoma): > 100 µM
TGI (SK-MEL-5 melanoma): > 100 µM
TGI (SR leukemia): > 100 µM
TGI (KM12 colon): > 100 µM
TGI (ACHN renal): > 100 µM
TGI (NCI/ADR-RES ovarian): > 100 µM

c1ccc([C@@H]2N[C@@]3(CO[Si](c4ccccc4)(c4ccccc4)c4ccccc4)CC[C@H]4CN[C@@H]2[C@H]43)cc1
TGI (NCI-H522 lung): 16.1 µM
TGI (NCI-H23 lung): 30.5 µM
TGI (SF-268 CNS): 22.6 µM
TGI (U251 CNS): 30.9 µM
TGI (SK-OV-3 ovarian): 30.3 µM
TGI (UACC-257 melanoma): 27.5 µM
TGI (SK-MEL-5 melanoma): 19.2 µM
TGI (SR leukemia): > 100 µM
TGI (KM12 colon): 12.4 µM
TGI (ACHN renal): 26.6 µM
TGI (NCI/ADR-RES ovarian): 32.4 µM

Cc1cc(NC(=O)C(=O)Cc2cnc3ccccc3n2)c(S(=O)(=O)O)cc1Cl
TGI (NCI-H522 lung): > 100 µM
TGI (SNB-75 CNS): > 100 µM
TGI (NCI-H23 lung): > 100 µM
TGI (SF-268 CNS): > 100 µM
TGI (U251 CNS): > 100 µM
TGI (SK-OV-3 ovarian): > 100 µM
TGI (UACC-257 melanoma): > 100 µM
TGI (SK-MEL-5 melanoma): > 100 µM
TGI (KM12 colon): > 100 µM
TGI (ACHN renal): > 100 µM
TGI (NCI/ADR-RES ovarian): > 100 µM

COC(=O)[C@H]1C=C[C@@H](C)n2c(=O)c3ccccc3c(=O)n21
TGI (NCI-H522 lung): > 100 µM
TGI (SNB-75 CNS): > 100 µM
TGI (NCI-H23 lung): > 100 µM
TGI (SF-268 CNS): > 100 µM
TGI (U251 CNS): > 100 µM
TGI (SK-OV-3 ovarian): > 100 µM
TGI (UACC-257 melanoma): > 100 µM
TGI (SK-MEL-5 melanoma): > 100 µM
TGI (SR leukemia): > 100 µM
TGI (KM12 colon): > 100 µM
TGI (ACHN renal): > 100 µM

CCOC(=O)c1nnsc1NC(=O)Nc1ccc(Cl)cc1
TGI (NCI-H522 lung): 50.1 µM
TGI (SNB-75 CNS): 88 µM
TGI (NCI-H23 lung): > 100 µM
TGI (SF-268 CNS): > 100 µM
TGI (U251 CNS): > 100 µM
TGI (UACC-257 melanoma): > 100 µM
TGI (SK-MEL-5 melanoma): > 100 µM
TGI (KM12 colon): > 100 µM
TGI (ACHN renal): > 100 µM
TGI (NCI/ADR-RES ovarian): 72.5 µM

CC1=CCC[C@@](C)(O)[C@@H]2C[C@H]3C(CSc4ccccc4)C(=O)O[C@H]3[C@@H](O2)[C@H](C)CCC1 (stereo partly specified)
TGI (NCI-H522 lung): 35.9 µM
TGI (SNB-75 CNS): 31.1 µM
TGI (NCI-H23 lung): 33.8 µM
TGI (SF-268 CNS): > 100 µM
TGI (U251 CNS): 66.8 µM
TGI (SK-OV-3 ovarian): 37.9 µM
TGI (UACC-257 melanoma): 39.3 µM
TGI (SK-MEL-5 melanoma): 38.3 µM
TGI (SR leukemia): > 100 µM
TGI (KM12 colon): 22.6 µM
TGI (ACHN renal): 25.5 µM

CC(C)C[C@H](NC(=O)CCc1ccccc1)B(O)O
TGI (NCI-H522 lung): 31.1 µM
TGI (NCI-H23 lung): > 100 µM
TGI (SF-268 CNS): 59.4 µM
TGI (U251 CNS): > 100 µM
TGI (UACC-257 melanoma): 37.8 µM
TGI (SK-MEL-5 melanoma): 22.8 µM
TGI (SR leukemia): 9.8 µM
TGI (KM12 colon): 32.8 µM
TGI (ACHN renal): > 100 µM
TGI (NCI/ADR-RES ovarian): 49.2 µM

O=C1C(Cl)C(c2ccc(Cl)cc2)N1n1cnc2ccccc2c1=O (stereo unspecified)
TGI (NCI-H522 lung): > 100 µM
TGI (SNB-75 CNS): > 100 µM
TGI (NCI-H23 lung): > 100 µM
TGI (SF-268 CNS): > 100 µM
TGI (U251 CNS): > 100 µM
TGI (SK-OV-3 ovarian): > 100 µM
TGI (UACC-257 melanoma): > 100 µM
TGI (SK-MEL-5 melanoma): > 100 µM
TGI (SR leukemia): > 100 µM
TGI (KM12 colon): > 100 µM
TGI (ACHN renal): > 100 µM

CC(=O)OC1OC2C(NC(=O)OC(C)(C)C)C1CC2(OCc1ccccc1)OCc1ccccc1 (stereo unspecified)
TGI (NCI-H522 lung): 30.5 µM
TGI (SNB-75 CNS): > 100 µM
TGI (NCI-H23 lung): 41.7 µM
TGI (SF-268 CNS): > 100 µM
TGI (U251 CNS): 32.4 µM
TGI (SK-OV-3 ovarian): 74.9 µM
TGI (UACC-257 melanoma): 37.9 µM
TGI (SK-MEL-5 melanoma): 33.1 µM
TGI (SR leukemia): > 100 µM
TGI (KM12 colon): 71.5 µM
TGI (ACHN renal): 80 µM

CO[C@@](c1ccccc1)(c1nc(C#N)c(N)o1)C(F)(F)F
TGI (NCI-H522 lung): 85.9 µM
TGI (SNB-75 CNS): > 100 µM
TGI (NCI-H23 lung): > 100 µM
TGI (U251 CNS): > 100 µM
TGI (SK-OV-3 ovarian): > 100 µM
TGI (UACC-257 melanoma): > 100 µM
TGI (SK-MEL-5 melanoma): > 100 µM
TGI (KM12 colon): > 100 µM
TGI (ACHN renal): > 100 µM
TGI (NCI/ADR-RES ovarian): > 100 µM

NC(=O)c1csc(CCCCCCc2nc(C(N)=O)cs2)n1
TGI (NCI-H522 lung): > 100 µM
TGI (SNB-75 CNS): > 100 µM
TGI (NCI-H23 lung): > 100 µM
TGI (SF-268 CNS): > 100 µM
TGI (U251 CNS): > 65.1 µM
TGI (SK-OV-3 ovarian): > 100 µM
TGI (UACC-257 melanoma): > 100 µM
TGI (SK-MEL-5 melanoma): > 100 µM
TGI (SR leukemia): > 100 µM
TGI (KM12 colon): > 100 µM
TGI (ACHN renal): > 100 µM

O=C1Nc2ccccc2[C@]12C[C@H]2c1ccccn1
TGI (NCI-H522 lung): > 100 µM
TGI (NCI-H23 lung): > 100 µM
TGI (SF-268 CNS): > 100 µM
TGI (U251 CNS): > 100 µM
TGI (SK-OV-3 ovarian): > 100 µM
TGI (UACC-257 melanoma): > 100 µM
TGI (SK-MEL-5 melanoma): > 100 µM
TGI (KM12 colon): > 100 µM
TGI (ACHN renal): > 100 µM
TGI (NCI/ADR-RES ovarian): > 100 µM

OCCSCc1cc2c(O)c(c1)Cc1cc(CSCCO)cc(c1O)Cc1cc(CSCCO)cc(c1O)Cc1cc(CSCCO)cc(c1O)C2
TGI (NCI-H522 lung): 14.7 µM
TGI (NCI-H23 lung): 16.7 µM
TGI (SF-268 CNS): 7.78 µM
TGI (U251 CNS): 16.8 µM
TGI (SK-OV-3 ovarian): 31.7 µM
TGI (UACC-257 melanoma): 27.7 µM
TGI (SK-MEL-5 melanoma): 4.4 µM
TGI (KM12 colon): 17.1 µM
TGI (ACHN renal): 9.61 µM
TGI (NCI/ADR-RES ovarian): 64.2 µM

NC1=CC(C(=O)c2ccncc2)c2nc3ccccc3nc21 (stereo unspecified)
TGI (NCI-H522 lung): > 100 µM
TGI (SNB-75 CNS): > 100 µM
TGI (NCI-H23 lung): > 100 µM
TGI (SF-268 CNS): > 100 µM
TGI (U251 CNS): > 100 µM
TGI (SK-OV-3 ovarian): > 100 µM
TGI (UACC-257 melanoma): > 100 µM
TGI (SK-MEL-5 melanoma): > 100 µM
TGI (KM12 colon): > 100 µM
TGI (ACHN renal): > 100 µM
TGI (NCI/ADR-RES ovarian): > 100 µM
